The experiment has as its target PD-L1. The experiment in a line: FACS binding, rat. The note with it: half-maximal binding. As for the experimental part: All samples were run on a […] FACSCalibur and Mean Fluorescence Intensity of PD-L1 binding data as a function of anti-PD-L1 antibody concentration was analyzed using Tree Star, Inc. FlowJo® software; EC50, values (Ab concentration associated with half-maximal binding) were calculated using Kaleidagraph. In addition, equilibrium binding studies were performed to define accurate affinities (Kds) for YW24355570 binding to human and mouse PD-L1 expressed on 293 cells (Example 3B).
In general terms: Flow cytometry measures light scatter and fluorescence of single cells or particles in a stream.

What is called EC50 is the midpoint of the concentration-response curve. A higher EC50 goes with weaker potency.

The substance “YW243.55.S70: affinity-matured phage anti-PD-L1 antibody derived from YW243.55, selected as the primary candidate; full length IgG1” gave a 50% effective concentration (EC50) of 0.8 nM. That is a sub-nanomolar value.

The record behind these values is US20210032345A1, “ANTI-PD-L1 ANTIBODIES, COMPOSITIONS AND ARTICLES OF MANUFACTURE” (Genentech, Inc., priority 2008, published 2021).
